ChEMBL document CHEMBL3137667, “[Drug-induced liver injury; fourteenth updated edition of the bibliographic database of liver injuries and related drugs]” (Gastroenterol Clin Biol, 2004)
Where a SMILES comes first, the peptide text is derived from it. Bridges are numbered along the chain shown (N, C = ends). [ ]: non-standard residue; d: D form.

What was measured:
[1] = human, serum
[2] = human, serum, 4383 h
[3] = human
[4] = Comments (NB not yet translated). [column 'COMMENTAIRES' in source]; conditions: human
[5] = human; remark: listed apart in the source
[6] = human; remark: listed apart in the source
[7] = Times to onset, minimal and maximal, observed in the indexed observations. [column 'DELAI' in source]; conditions: human
[8] = human, serum; remark: listed apart in the source
[9] = Highest frequency of acute liver toxicity observed during clinical trials, expressed as a percentage. [column '% AIGUE' in source]; conditions: human
[10] = human; remark: listed apart in the source
[11] = human; remark: listed apart in the source
[12] = human; remark: listed apart in the source
[13] = human; remark: listed apart in the source
[14] = Highest frequency of moderate liver toxicity observed during clinical trials, expressed as a percentage. [column '% BIOL' in source]; conditions: human
[15] = human; remark: listed apart in the source
[16] = human; remark: listed apart in the source
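Wherever Hepatotoxicity (association with vascular disease) is given: count of indexed literature references reporting vascular liver injury in humans, e.g. peliosis hepatitis, hepatic veno-occlusive disease or Budd-Chiari syndrome.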
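Wherever Hepatotoxicity (benign tumour) is given: value is a count of indexed literature references citing a benign tumour confirmed by histopathology.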
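Wherever Hepatotoxicity (choleostasis) is given: human cholestatic liver injury, shown by histopathology or by peak ALT or AST elevation over alkaline phosphatase ratio below 2, value counts indexed literature reports.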
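Wherever Hepatotoxicity (chronic liver disease) is given: chronic liver injury confirmed by histopathology or persistently raised serum aminotransferase activity beyond 6 months, value given as the count of indexed literature references.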
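Wherever Hepatotoxicity (cirrhosis) is given: value is a count of indexed literature references reporting cirrhosis confirmed by histopathology.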
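Wherever Hepatotoxicity (cytolytic) is given: human cytolytic liver injury, shown by histopathology or by a ratio above 5 of peak ALT or AST elevation to alkaline phosphatase elevation, value counts indexed references.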
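Wherever Hepatotoxicity (granulomatous hepatitis) is given: value is a count of indexed literature references reporting granulomatous liver disease confirmed by histopathology.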
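Wherever Hepatotoxicity (malignant tumour) is given: malignant tumour confirmed by histopathology, value gives the count of indexed literature references reporting it.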
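Wherever Hepatotoxicity (severe hepatitis) is given: human clinical data: severe hepatitis, meaning potentially life-threatening liver failure or clinically observed cases, the value counts how many indexed literature references report it.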
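Wherever Hepatotoxicity (steatosis) is given: steatosis confirmed by histopathology, value is the count of indexed references.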

| Molecule | Hepatotoxicity (acute) [1] | Hepatotoxicity (chronic liver disease) [2] | Hepatotoxicity (malignant tumour) [3] | Hepatotoxicity (comment) [4] | Hepatotoxicity (choleostasis) [5] | Hepatotoxicity (severe hepatitis) [6] | Hepatotoxicity (time to onset) [7] | Hepatotoxicity (moderate) [8] | Hepatotoxicity (acute) [9] | Hepatotoxicity (benign tumour) [10] | Hepatotoxicity (steatosis) [11] | Hepatotoxicity (cirrhosis) [12] | Hepatotoxicity (association with vascular disease) [13] | Hepatotoxicity (moderate) [14] | Hepatotoxicity (cytolytic) [15] | Hepatotoxicity (granulomatous hepatitis) [16] | also measured |
| --- | --- | --- | --- | --- | --- | --- | --- | --- | --- | --- | --- | --- | --- | --- | --- | --- | --- |
| CCOc1nc2cccc(C(=O)O)c2n1Cc1ccc(-c2ccccc2-c2nnn[nH]2)cc1 | 2 | 0 | 0 | DUCTOPENIE | 0 | 1 | 2 weeks - 5.5 months | 3 | 0% | 0 | 1 | 0 | 0 | 2.4% | 3 | 0 | – |
| CC(=O)[C@@]1(O)CC[C@H]2[C@@H]3C[C@H](C)C4=CC(=O)CC[C@]4(C)[C@H]3CC[C@@]21C | 3 | 0 | 0 | LITHIASE | – | – | 1 month - 1.7 years | 5 | – | 0 | 0 | 0 | 0 | – | – | – | Hepatotoxicity (choleostasis) ([5]; Liver): 1; Hepatotoxicity (severe hepatitis) ([6]; Liver): 1; Hepatotoxicity (acute) ([9]; Liver): 3.3%; Hepatotoxicity (moderate) ([14]; Liver): 4.9%; Hepatotoxicity (cytolytic) ([15]; Liver): 1; Hepatotoxicity (granulomatous hepatitis) ([16]; Liver): 0 |
| CCO.CN1CCC[C@H]1c1cccnc1 | 3 | 1 | 0 | CHOLANGITE | – | – | 8 months - 10 years | 2 | – | 0 | 0 | 0 | 0 | – | – | – | Hepatotoxicity (choleostasis) ([5]; Liver): 2; Hepatotoxicity (severe hepatitis) ([6]; Liver): 0; Hepatotoxicity (acute) ([9]; Liver): 0%; Hepatotoxicity (moderate) ([14]; Liver): 4%; Hepatotoxicity (cytolytic) ([15]; Liver): 1; Hepatotoxicity (granulomatous hepatitis) ([16]; Liver): 0 |
| Cc1c(O)cccc1C(=O)N[C@@H](CSc1ccccc1)[C@H](O)CN1C[C@H]2CCCC[C@H]2C[C@H]1C(=O)NC(C)(C)C | 3 | 0 | 0 | REACTIVATION_HVB | 0 | 0 | 47 days - 17 months | 4 | 7.4% | 0 | 0 | 0 | 0 | 27% | 3 | 0 | – |
| C[C@]12C=CC(=O)C=C1CC[C@@H]1[C@@H]2CC[C@@]2(C)[C@H]1CC[C@]2(C)O (stereo in doubt; form 1) [METHANDROSTENOLONE] | 3 | 0 | 2 | ANGIOSARCOME | 0 | 0 | 1 year - 2 years | 0 | 0% | 1 | 0 | 0 | 0 | 0% | 0 | 0 | – |
| CC(=O)c1ccc2c(c1)N(CCCN(C)C)c1ccccc1S2 [ACEPROMAZINE] | 1 | 0 | 0 | CHOLESTASE_PROLONGEE | 1 | 0 | 3 months | 0 | 0% | 0 | 0 | 0 | 0 | 0% | 0 | 0 | – |
| CC(=O)c1ccc2c(c1)N(CC(C)N(C)C)c1ccccc1S2 (configuration not stated) [ACEPROMETAZINE] | 1 | 0 | 0 | CHOLESTASE_PROLONGEE | 1 | 0 | 3 months | 0 | 0% | 0 | 0 | 0 | 0 | 0% | 0 | 0 | – |
| CC(C)[C@@H]1NC(=O)[C@H](CCCCN)NC(=O)[C@@H](Cc2c[nH]c3ccccc23)NC(=O)[C@H](Cc2ccc(O)cc2)NC(=O)[C@@H](NC(=O)[C@H](N)Cc2ccc3ccccc3c2)CSSC[C@@H](C(=O)N[C@H](C(N)=O)[C@@H](C)O)NC1=O [LANREOTIDE] | 0 | 0 | 0 | BOUE_BILIAIRE LITHIASE_VESICULAIRE ENCEPHALOPATHIE | 0 | 0 | – | 0 | 0% | 0 | 0 | 0 | 0 | 0% | 0 | 0 | – |
| O=C1Nc2ccc(Cl)cc2C(c2ccccc2Cl)=NC1O (configuration not stated) [LORAZEPAM] | 1 | 0 | 0 | I/PYRIMETHAMINE | 0 | 0 | – | 1 | 0% | 0 | 0 | 0 | 0 | 0% | 0 | 0 | – |
| CC1=C(C/C=C(\C)CCC[C@H](C)CCC[C@H](C)CCCC(C)C)C(=O)c2ccccc2C1=O [PHYTONADIONE] | 5 | 0 | 0 | ICTERE_NEONATAL | 0 | 0 | – | 0 | 0% | 0 | 0 | 0 | 0 | 0% | 0 | 0 | – |
| COc1cc([C@@H]2c3cc4c(cc3[C@@H](O[C@@H]3O[C@@H]5CO[C@@H](c6cccs6)O[C@H]5[C@H](O)[C@H]3O)[C@H]3COC(=O)[C@H]23)OCO4)cc(OC)c1O [TENIPOSIDE] | 0 | 0 | 0 | HNR | 0 | 0 | – | 4 | 0% | 0 | 0 | 0 | 1 | 23.8% | 0 | 0 | – |
| CC(C)[C@@H]1NC(=O)[C@H](CCCCN)NC(=O)[C@@H](Cc2c[nH]c3ccccc23)NC(=O)[C@H](Cc2ccc(O)cc2)NC(=O)[C@@H](NC(=O)[C@H](N)Cc2ccccc2)CSSC[C@@H](C(=O)N[C@@H](Cc2c[nH]c3ccccc23)C(N)=O)NC1=O [VAPREOTIDE] (H-[dF]CY[dW]KVCW-NH2; disulfide 2-7) | 0 | 0 | 0 | LITHIASE | 0 | 0 | – | 1 | 0% | 0 | 0 | 0 | 0 | 4.8% | 0 | 0 | – |
| ANTIMONY (III) ION | 1 | 0 | 0 | HEPATONEPHRITE | 0 | 0 | – | 0 | 0% | 0 | 0 | 0 | 0 | 0% | 1 | 0 | – |
